Assay results taken from the supplement of paper PMC10307832.

How the values were obtained:
Test in all cases: relative viability (nuclei count vs DMSO), 5 days (fraction); higher = more cells survive
[1] = compound: C1CC1C(=O)NC2=NNC3=C2C=CC(=C3)C4=CC(=CC=C4)C(=O)NC5CC5 [XMD13-2] + COc1cccc2cc(-c3nc([C@H]4CC[C@H](C(=O)O)CC4)n4ncnc(N)c34)[nH]c12 [OSI-027] (partner 0.5 µM)
Summary of the method: (§1)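 Each reported value is a median over duplicate plates. It expresses relative viability: treated-well nuclei count divided by vehicle-well nuclei count. Lung cancer cell lines in 1536-well plates were dosed by pin tool a day after seeding, alone with one drug or with a fixed anchor-drug dose plus five library-drug doses (not always all listed) in √10 steps, and nuclei were counted after 5 days.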

[2] = compound: Cc1ccc(C(=O)Nc2cccc(C(F)(F)F)c2)cc1Nc1cncc(C(N)=O)c1 [ALW-II-49-7] + COc1cc2c(Oc3ccc(NC(=O)C4(C(=O)Nc5ccc(F)cc5)CC4)cc3F)ccnc2cc1OCCCN1CCOCC1 [Foretinib] (partner 0.25 µM)
Summary of the method: as §1

[3] = compound: Cc1ccc(C(=O)Nc2cccc(C(F)(F)F)c2)cc1Nc1cncc(C(N)=O)c1 [ALW-II-49-7] + Nc1ncn([C@H]2C[C@H](O)[C@@H](CO)O2)c(=O)n1 [Decitabine] (partner 2 µM)
Summary of the method: as §1

[4] = compound: Cc1nc(Nc2ncc(C(=O)Nc3c(C)cccc3Cl)s2)cc(N2CCN(CCO)CC2)n1 [Dasatinib] + Nc1ncn([C@H]2C[C@H](O)[C@@H](CO)O2)c(=O)n1 [Decitabine] (partner 2 µM)
Summary of the method: as §1

Cell Line	relative viability ([1]; first compound 0.05 µM)	relative viability ([1]; first compound 0.1581 µM)	relative viability ([1]; first compound 0.5 µM)	relative viability ([1]; first compound 1.581 µM)	relative viability ([1]; first compound 5 µM)	relative viability ([2]; first compound 0.08 µM)	relative viability ([2]; first compound 0.253 µM)	relative viability ([2]; first compound 0.8 µM)	relative viability ([2]; first compound 2.53 µM)	relative viability ([2]; first compound 8 µM)	relative viability ([3]; first compound 0.08 µM)	relative viability ([3]; first compound 0.253 µM)	relative viability ([3]; first compound 0.8 µM)	relative viability ([3]; first compound 2.53 µM)	relative viability ([3]; first compound 8 µM)	relative viability ([4]; first compound 0.005 µM)	relative viability ([4]; first compound 0.01581 µM)	relative viability ([4]; first compound 0.05 µM)	relative viability ([4]; first compound 0.1581 µM)	relative viability ([4]; first compound 0.5 µM)
NCI-H322M	0.576	0.507	0.519	0.588	0.593	0.825	0.996	0.908	0.771	0.962	0.618	0.774	0.637	0.756	0.671	0.755	0.589	0.518	0.45	0.253
NCI-H358	0.97	0.686	0.848	0.726	0.442	0.691	0.658	0.575	0.809	0.689	0.19	0.183	0.22	0.234	0.232	0.211	0.173	0.169	0.127	0.146
NCI-H441	0.682	0.777	0.578	0.485	0.588	1.02	1.01	1.14	1.22	0.854	0.257	0.229	0.253	0.208	0.253	0.276	0.232	0.272	0.202	0.19
NCI-H460	0.939	0.837	0.713	0.723	0.645	1.09	1.05	0.84	1.02	0.899	0.5	0.488	0.513	0.408	0.492	0.568	0.444	0.352	0.29	0.286
NCI-H520	0.306	0.278	0.232	0.294	0.225	0.904	0.697	0.971	0.777	0.555	0.559	0.472	0.497	0.531	0.561	0.524	0.38	0.266	0.177	0.175
NCI-H596	0.776	0.673	0.715	0.79	0.985	0.949	0.902	0.886	0.841	0.937	0.884	1.23	1.1	1.12	1.05	0.955	0.916	0.724	0.668	0.542
NCI-H647	0.779	0.781	0.669	0.59	0.508	1.36	1.32	1.23	1.09	1.06	0.322	0.321	0.396	0.374	0.307	0.379	0.311	0.315	0.173	0.182
NCI-H650	0.522	0.512	0.599	0.474	0.522	1.16	1.06	1.01	0.92	0.638	0.333	0.334	0.314	0.306	0.321	0.325	0.281	0.318	0.341	0.302
NCI-H661	0.848	0.688	0.786	0.63	0.494	1.17	1.08	0.954	1.01	0.884	0.519	0.583	0.574	0.541	0.5	0.566	0.528	0.518	0.394	0.404
NCI-H727	0.543	0.68	0.573	0.54	0.664	1.17	0.832	1.1	0.912	1.08	0.775	0.884	0.738	0.824	0.703	0.818	0.7	0.742	0.718	0.295
NCI-H838	0.432	0.402	0.339	0.398	0.437	0.988	1.12	1.04	1.12	1.24	0.413	0.433	0.483	0.447	0.48	0.45	0.422	0.39	0.377	0.3
NCI-H1355	0.48	0.413	0.394	0.382	0.387	1.05	0.895	0.969	0.887	1.02	0.329	0.366	0.391	0.436	0.376	0.355	0.319	0.354	0.343	0.272
NCI-H1395	0.684	0.757	0.653	0.633	0.647	1.09	1.03	1	1.03	0.943	0.674	0.712	0.632		0.642	0.73	0.669	0.694	0.57	0.326
NCI-H1437	0.958	0.929	0.885	0.873	0.985	1.35	1.26	1.2	1.26	1.16	0.551	0.553	0.594	0.624	0.644	0.599	0.576	0.642	0.499	0.49
NCI-H1650	0.651	0.609	0.747	0.555	0.697	1.04	1.18	1.08	1.05	1.13	0.447	0.399	0.432	0.462	0.493	0.462	0.255	0.475	0.318	0.314
NCI-H1651	0.813	0.716	0.768	0.747	0.778	0.989	0.631	0.953	0.678	0.852	0.637	0.669	0.606	0.604	0.51	0.629	0.507	0.558	0.585	0.473
